According to US9513294B2, “Megastokes amino-triazolyl-BODIPY compounds and applications to live neuron staining and human serum albumin FA1 drug site probing” (National University of Singapore, priority 2012, dated 2016):

Assay: Absorbance and fluorescence emission spectra (SpectraMax M2)
Type: physicochemical
Conditions: BDCAC library, Table 3
Method: BDC-8 (Blue): absorbance λmax=473 nm, emission λmax=585 nm; MK101-8 (Green): absorbance λmax=474 nm, emission λmax=563 nm; MKHA374-48 (Yellow): absorbance λmax=468 nm, λem=557 nm. The corresponding spectra of a reported BODIPY (BD-27; Red) are also included for comparison: absorbance λmax=551 nm, emission λmax=568 nm. The structures of BDC-8, MK101-8, MKHA374-48 and BD-27 are also depicted.
(§1) ^1H-NMR, ^19F-NMR and ^13C-NMR spectra were recorded on Bruker ACF300 (300 MHz), DPX300 (300 MHz) and AMX500 (500 MHz) spectrometers. High resolution mass spectra (ESI) were obtained on a Finnigan/MAT 95XL-T spectrometer. Spectroscopic and quantum yield data were measured on a SpectraMax M2 spectrophotometer (Molecular Devices). Data analysis was performed using GraphPrism 5.0. Analytical characterization was performed on a HPLC-MS (Agilent-1200 series) with a DAD detector and a single quadrupole mass spectrometer (6130 series) with an ESI probe. Analytical HPLC method: eluents, A: H2O (0.1% HCOOH), B: CH3CN (0.1% HCOOH), gradient 5% B to 95% B (10 min). Reverse-phase Phenomenex C18 Luna column (4.6×50 mm^2, 3.5 […]), flow rate: 1 mL/min.

Row | SMILES | λmax Absorp. | λmax Emission
1 | CC(=O)Nc1ccc(C2=C3C=CC(N4CCCCC4)=[N+]3[B-](F)(F)n3c2ccc3-n2cc(-c3ccc(-c4ccccc4)cc3)nn2)cc1 [BDCAC-23] | 465 nm | 574 nm
2 | CC(=O)Nc1ccc(C2=C3C=CC(N4CCCCC4)=[N+]3[B-](F)(F)n3c2ccc3-n2cc(-c3ccc(F)cc3F)nn2)cc1 [BDCAC-26] | 465 nm | 567 nm
3 | COc1cccc(-c2cn(-c3ccc4n3[B-](F)(F)[N+]3=C(N5CCCCC5)C=CC3=C4c3ccc(NC(C)=O)cc3)nn2)c1 [BDCAC-27] | 464 nm | 555 nm
4 | CCCCCc1ccc(-c2cn(-c3ccc4n3[B-](F)(F)[N+]3=C(N5CCCCC5)C=CC3=C4c3ccc(NC(C)=O)cc3)nn2)cc1 [BDCAC-29] | 465 nm | 561 nm
5 | CC(=O)Nc1ccc(C2=C3C=CC(N4CCCCC4)=[N+]3[B-](F)(F)n3c2ccc3-n2cc(-c3cc(C(F)(F)F)cc(C(F)(F)F)c3)nn2)cc1 [BDCAC-30] | 459 nm | 549 nm
6 | CC(=O)Nc1ccc(C2=C3C=CC(N4CCCCC4)=[N+]3[B-](F)(F)n3c2ccc3-n2cc(-c3cccc(F)c3)nn2)cc1 [BDCAC-31] | 463 nm | 569 nm
7 | CC(=O)Nc1ccc(C2=C3C=CC(N4CCCCC4)=[N+]3[B-](F)(F)n3c2ccc3-n2cc(CCC(C)C)nn2)cc1 [BDCAC-36] | 467 nm | 585 nm
8 | CC(=O)Nc1ccc(C2=C3C=CC(N4CCCCC4)=[N+]3[B-](F)(F)n3c2ccc3-n2cc(C3=CCCCC3)nn2)cc1 [BDCAC-37] | 466 nm | 565 nm
9 | CCCCc1cn(-c2ccc3n2[B-](F)(F)[N+]2=C(N4CCCCC4)C=CC2=C3c2ccc(NC(C)=O)cc2)nn1 [BDCAC-42] | 467 nm | 577 nm
10 | CC(=O)Nc1ccc(C2=C3C=CC(N4CCCCC4)=[N+]3[B-](F)(F)n3c2ccc3-n2cc(CC(C)C)nn2)cc1 [BDCAC-43] | 467 nm | 581 nm
11 | CCCCCCCCc1cn(-c2ccc3n2[B-](F)(F)[N+]2=C(N4CCCCC4)C=CC2=C3c2ccc(NC(C)=O)cc2)nn1 [BDCAC-44] | 468 nm | 581 nm
12 | CC(=O)Nc1ccc(C2=C3C=CC(N4CCCCC4)=[N+]3[B-](F)(F)n3c2ccc3-n2cc(-c3cccc(C)c3)nn2)cc1 [BDCAC-45] | 463 nm | 551 nm
13 | CCc1ccc(-c2cn(-c3ccc4n3[B-](F)(F)[N+]3=C(N5CCCCC5)C=CC3=C4c3ccc(NC(C)=O)cc3)nn2)cc1 [BDCAC-46] | 465 nm | 578 nm
14 | CCCCCCc1cn(-c2ccc3n2[B-](F)(F)[N+]2=C(N4CCCCC4)C=CC2=C3c2ccc(NC(C)=O)cc2)nn1 [BDCAC-47] | 467 nm | 562 nm
15 | CCCc1cn(-c2ccc3n2[B-](F)(F)[N+]2=C(N4CCCCC4)C=CC2=C3c2ccc(NC(C)=O)cc2)nn1 [BDCAC-48] | 467 nm | 576 nm
16 | CCCCCCCCCCc1cn(-c2ccc3n2[B-](F)(F)[N+]2=C(N4CCCCC4)C=CC2=C3c2ccc(NC(C)=O)cc2)nn1 [BDCAC-49] | 467 nm | 575 nm
17 | CCCCCCCc1cn(-c2ccc3n2[B-](F)(F)[N+]2=C(N4CCCCC4)C=CC2=C3c2ccc(NC(C)=O)cc2)nn1 [BDCAC-50] | 467 nm | 567 nm

Assay: Quantum yield measurements versus Acridine Yellow in EtOH
Type: physicochemical
Conditions: BDCAC library, Table 3; excitation 460 nm
Method: as §1
Quantum yields were calculated by measuring the integrated emission area of the fluorescent spectra and comparing to the area measured for Acridine Yellow in EtOH when excited at 460 nm (Φfluorescence^AcridineYellow=0.47). Quantum yields for the amino-triazolyl-BODIPYs were calculated using the equation below, where F represents the area of fluorescent emission, η is the refractive index of the solvent, and Abs is absorbance at the excitation wavelength selected for standards and samples. Emission was integrated between 510 and 700 nm.

Row | SMILES | φ (quantum yield)
18 | CC(=O)Nc1ccc(C2=C3C=CC(N4CCCCC4)=[N+]3[B-](F)(F)n3c2ccc3-n2cc(-c3ccc(-c4ccccc4)cc3)nn2)cc1 [BDCAC-23] | 1.3%
19 | CC(=O)Nc1ccc(C2=C3C=CC(N4CCCCC4)=[N+]3[B-](F)(F)n3c2ccc3-n2cc(-c3ccc(F)cc3F)nn2)cc1 [BDCAC-26] | 1.3%
20 | COc1cccc(-c2cn(-c3ccc4n3[B-](F)(F)[N+]3=C(N5CCCCC5)C=CC3=C4c3ccc(NC(C)=O)cc3)nn2)c1 [BDCAC-27] | 2.1%
21 | CCCCCc1ccc(-c2cn(-c3ccc4n3[B-](F)(F)[N+]3=C(N5CCCCC5)C=CC3=C4c3ccc(NC(C)=O)cc3)nn2)cc1 [BDCAC-29] | 1.6%
22 | CC(=O)Nc1ccc(C2=C3C=CC(N4CCCCC4)=[N+]3[B-](F)(F)n3c2ccc3-n2cc(-c3cc(C(F)(F)F)cc(C(F)(F)F)c3)nn2)cc1 [BDCAC-30] | 3.5%
23 | CC(=O)Nc1ccc(C2=C3C=CC(N4CCCCC4)=[N+]3[B-](F)(F)n3c2ccc3-n2cc(-c3cccc(F)c3)nn2)cc1 [BDCAC-31] | 0.9%
24 | CC(=O)Nc1ccc(C2=C3C=CC(N4CCCCC4)=[N+]3[B-](F)(F)n3c2ccc3-n2cc(CCC(C)C)nn2)cc1 [BDCAC-36] | 0.8%
25 | CC(=O)Nc1ccc(C2=C3C=CC(N4CCCCC4)=[N+]3[B-](F)(F)n3c2ccc3-n2cc(C3=CCCCC3)nn2)cc1 [BDCAC-37] | 1.9%
26 | CCCCc1cn(-c2ccc3n2[B-](F)(F)[N+]2=C(N4CCCCC4)C=CC2=C3c2ccc(NC(C)=O)cc2)nn1 [BDCAC-42] | 1.3%
27 | CC(=O)Nc1ccc(C2=C3C=CC(N4CCCCC4)=[N+]3[B-](F)(F)n3c2ccc3-n2cc(CC(C)C)nn2)cc1 [BDCAC-43] | 0.8%
28 | CCCCCCCCc1cn(-c2ccc3n2[B-](F)(F)[N+]2=C(N4CCCCC4)C=CC2=C3c2ccc(NC(C)=O)cc2)nn1 [BDCAC-44] | 0.8%
29 | CC(=O)Nc1ccc(C2=C3C=CC(N4CCCCC4)=[N+]3[B-](F)(F)n3c2ccc3-n2cc(-c3cccc(C)c3)nn2)cc1 [BDCAC-45] | 3.2%
30 | CCc1ccc(-c2cn(-c3ccc4n3[B-](F)(F)[N+]3=C(N5CCCCC5)C=CC3=C4c3ccc(NC(C)=O)cc3)nn2)cc1 [BDCAC-46] | 1.4%
31 | CCCCCCc1cn(-c2ccc3n2[B-](F)(F)[N+]2=C(N4CCCCC4)C=CC2=C3c2ccc(NC(C)=O)cc2)nn1 [BDCAC-47] | 1.4%
32 | CCCc1cn(-c2ccc3n2[B-](F)(F)[N+]2=C(N4CCCCC4)C=CC2=C3c2ccc(NC(C)=O)cc2)nn1 [BDCAC-48] | 1.6%
33 | CCCCCCCCCCc1cn(-c2ccc3n2[B-](F)(F)[N+]2=C(N4CCCCC4)C=CC2=C3c2ccc(NC(C)=O)cc2)nn1 [BDCAC-49] | 1.3%
34 | CCCCCCCc1cn(-c2ccc3n2[B-](F)(F)[N+]2=C(N4CCCCC4)C=CC2=C3c2ccc(NC(C)=O)cc2)nn1 [BDCAC-50] | 1.4%
